Patent US10765114B2, “4-amino-6-(pyridyl and 2-substitutedphenyl)-picolinates and 6-amino-2-(pyridyl and 2-substitutedphenyl)-pyrimidine-4-carboxylates and their use as herbicides” (Dow AgroSciences LLC, priority 2013, dated 2020)

How the values were obtained:
Assay in all cases: Post-Emergent Test III (Wheat and Barley)
ALOMY (blackgrass) = assay type: in vivo, Alopecurus myosuroides; details: for pest or weed control at 35 g/ha / pest or weed control at 70 g/ha / pest or weed control at 140 g/ha: Alopecurus myosuroides, post-emergence, 504 h, postemergence, read-out: Visual Growth Reduction (%) 21 Days After Application, ALOMY; for pest or weed control at 35 g/ha: 35 g ai/ha; for pest or weed control at 70 g/ha: 70 g ai/ha; for pest or weed control at 140 g/ha: 140 g ai/ha; for GR50, ALOMY: effective dose for growth reduction of 50 percent; for GR50, ALOMY / GR80, ALOMY: probit analysis; for GR80, ALOMY: effective dose for growth reduction of 80 percent
Experimental: (§1) Seeds of the desired test plant species were planted in Sun Gro MetroMix® 306 planting mixture, which typically has a pH of 6.0 to 6.8 and an organic matter content of about 30 percent, in plastic pots with a surface area of 103.2 square centimeters (cm^2). When required to ensure good germination and healthy plants, a fungicide treatment and/or other chemical or physical treatment was applied. The plants were grown for 7-36 days in a greenhouse with an approximate 14 h photoperiod which was maintained at about 18° C. during the day and 17° C. during the night. Nutrients and water were added on a regular basis and supplemental lighting was provided with overhead metal halide 1000-Watt lamps as necessary. The plants were employed for testing when they reached the second or third true leaf stage.
(§2) A weighed amount, determined by the highest rate to be tested, of each test compound was placed in a 25 mL glass vial and was dissolved in 4 mL of a 97:3 v/v mixture of acetone and DMSO to obtain concentrated stock solutions. […] The concentrated stock solutions obtained were diluted with 20 mL of an aqueous mixture containing acetone, water, isopropyl alcohol, DMSO, Agri-Dex crop oil concentrate, and X-77 surfactant in a 48:39:10:1.5:1.5:0.02 v/v ratio to obtain spray solutions containing the highest application rates. Additional application rates were obtained by serial dilution of 12 mL of the high rate solution into a solution containing 2 mL of 97:3 v/v mixture of acetone and DMSO and 10 mL of an aqueous mixture containing acetone, water, isopropyl alcohol, DMSO, Agri-Dex crop oil concentrate, and X-77 surfactant in a 48:39:10:1.5:1.5:0.02 v/v ratio to obtain ½×, ¼×, ⅛× and 1/16× rates of the high rate. Compound requirements are based upon a 12 mL application volume at a rate of 187 liters per hectare (L/ha). Formulated compounds were applied to the plant material with an overhead Mandel track sprayer equipped with 8002E nozzles calibrated to deliver 187 L/ha over an application area of 0.503 square meters at a spray height of 18 inches (43 cm) above the average plant canopy height. Control plants were sprayed in the same manner with the solvent blank.
(§3) The treated plants and control plants were placed in a greenhouse as described above and watered by subirrigation to prevent wash-off of the test compounds. After 21 dAYS, the condition of the test plants as compared with that of the untreated plants was determined visually and scored on a scale of 0 to 100 percent where 0 corresponds to no injury and 100 corresponds to complete kill and presented as indicated in Table A.
(§4) By applying the well-accepted probit analysis as described by J. Berkson in Journal of the American Statistical Society, 48, 565 (1953) and by D. Finney in “Probit Analysis” Cambridge University Press (1952), herbicidal injury of a specific compound at various rates can be used to calculate GR10, GR20, GR50, GR80 and GR90 values, which are defined as growth reduction factors that correspond to the effective dose of herbicide required to provide plant growth reduction (GR) of 10 percent, 20 percent, 50 percent, 80 percent and 90 percent, respectively. Probit analysis was applied to data collected from multiple dose rates of individual compounds utilizing the procedures explained in the following examples. The analysis of those dose rates is captured in the following tables.

PAPRH (common poppy) = assay type: in vivo, Papaver rhoeas; details: for Visual Growth Reduction (%) 21 Days After Application, PAPRH: PAPRH common poppy (Papaver rhoeas), post-emergent
Experimental: as §1, §2, §3, §4

[1] = tested on: VERPE (Persian speedwell); assay type: in vivo, Veronica persica; details: for Visual Growth Reduction (%) 21 Days After Application, VERPE: VERPE bird's-eye speedwell (Veronica persica), post-emergent
Experimental: as §1, §2, §3, §4

Structure (SMILES)	pest or weed control at 35 g/ha (ALOMY (blackgrass)) [%]	pest or weed control at 70 g/ha (ALOMY (blackgrass)) [%]	pest or weed control at 140 g/ha (ALOMY (blackgrass)) [%]	GR50, ALOMY (ALOMY (blackgrass)) [g ai/ha]	GR80, ALOMY (ALOMY (blackgrass)) [g ai/ha]	other results
COC(=O)c1nc(-c2ccc(C3CC3)nc2)c(F)c(N)c1Cl [Compound 49]	0 to 29	30 to 44	45 to 59	>140	>140	–
Cc1c(-c2ccc(C(F)(F)F)nc2)nc(C(=O)O)c(Cl)c1N [Compound 51, 4-amino-5-chloro-3-methyl-6′-(trifluoromethyl)-[2,3′-bipyridine]-6-carboxylic acid]	0 to 29	0 to 29	–	>140	>140	–
COC(=O)c1nc(-c2ccc(C(F)(F)F)nc2)c(F)c(N)c1Cl [Compound 59, methyl 4-amino-5-chloro-3-fluoro-6′-(trifluoromethyl)-[2,3′-bipyridine]-6-carboxylate]	30 to 44	60 to 74	–	48	80	–
Nc1c(F)c(-c2ccc(OC(F)F)nc2)nc(C(=O)O)c1Cl [Compound 66]	0 to 29	0 to 29	45 to 59	140	>140	–
COC(=O)c1nc(-c2ccc(OC(F)F)nc2)c(F)c(N)c1Cl [Compound 71]	0 to 29	0 to 29	30 to 44	>140	>140	–
COC(=O)c1nc(-c2ccc(C(F)(F)F)nc2)c(Cl)c(N)c1Cl [Compound 83]	60 to 74	75 to 84	–	25	58	–
Nc1cc(-c2ccc(Cl)c(Cl)c2Cl)nc(C(=O)O)c1Cl [Compound 93]	–	–	–	–	–	Visual Growth Reduction (%) 21 Days After Application, PAPRH (PAPRH (common poppy); 17.5 g ai/ha): C (75-84); Visual Growth Reduction (%) 21 Days After Application, PAPRH (PAPRH (common poppy); 35 g ai/ha): C (75-84); Visual Growth Reduction (%) 21 Days After Application, PAPRH (PAPRH (common poppy); 70 g ai/ha): B (85-94); GR50, PAPRH (PAPRH (common poppy); PAPRH, growth reduction of 50%, probit analysis, 21 days): 1 g ai/ha; GR80, PAPRH (PAPRH (common poppy); PAPRH, growth reduction of 80%, probit analysis, 21 days): 27 g ai/ha; GR90, PAPRH (PAPRH (common poppy); PAPRH, growth reduction of 90%, probit analysis, 21 days): >140 g ai/ha; Visual Growth Reduction (%) 21 Days After Application, VERPE ([1]; 17.5 g ai/ha): E (45-59); Visual Growth Reduction (%) 21 Days After Application, VERPE ([1]; 35 g ai/ha): D (60-74); Visual Growth Reduction (%) 21 Days After Application, VERPE ([1]; 70 g ai/ha): D (60-74); GR50, VERPE ([1]; VERPE, growth reduction of 50%, probit analysis, 21 days): 24 g ai/ha; GR80, VERPE ([1]; VERPE, growth reduction of 80%, probit analysis, 21 days): >140 g ai/ha; GR90, VERPE ([1]; VERPE, growth reduction of 90%, probit analysis, 21 days): >140 g ai/ha
